Entries after “also recorded” stand apart in the source; their conditions may differ.
B1: rhDNase: mucus degrading agent which hydrolyzes linear DNA, used clinically to increase mucus clearance (protein, UniProt P24855 23-282, looked up)
Deoxyribonuclease-1: LKIAAFNIQTFGETKMSNATLVSYIVQILSRYDIALVQEVRDSHLTAVGKLLDNLNQDAPDTYHYVVSEPLGRNSYKERYLFVYRPDQVSAVDSYYYDDGCEPCGNDTFNREPAIVRFFSRFTEVREFAIVPLHAAPGDAVAEIDALYDVYLDVQEKWGLEDVMLMGDFNAGCSYVRPSQWSSIRLWTSPTFQWLIPDSADTTATPTHCAYDRIVVAGMLLRGAVVPDSALPFNFQAAYGLSDQLAQAISDHYPVEVMLK

Assay: Multiple particle tracking of particles in CF sputum with mucolytic pretreatment
Assay type: in vitro ADME, human
Details: for effect on overall ensemble averaged transport rates of nanoparticles: CF mucus, 30 mins post-treatment, 200 nm particles (rhDNase), 100 nm particles (0.4 mM NAC)
Description: Human respiratory sputum was expectorated from male and female CF patients (ages 18-35). CF sputum samples from multiple patients were pooled, freeze-dried, and reconstituted in sputum buffer by stirring at 4° C. to attain a large volume of homogeneous CF sputum. The volume of sputum buffer added to reconstituted CF sputum samples was determined by mass measurements (the reconstituted CF sputum had the equivalent mass of the fresh CF sputum samples).
[…] Mucus samples (200 μL) were centrifuged and a portion of the supernatant (40 μL) was replaced with mucolytic solution or PBS to maintain the initial concentration of mucus solids and eliminate any dilution effects. The displacements of particles in the no treatment (PBS) control were identical to that of particles embedded in an unprocessed mucus sample, which was not centrifuged. The tracking resolution, evaluated by tracking 500 nm polystyrene probes in glycerol, was […].
The mechanism of particle transport over short and long time scales was classified based on the concept of relative change (RC) of effective diffusivity (Deff). In brief, RC values of particles at short and long time scales were calculated by dividing the Deff of a particle at a probed time scale by the Deff at an earlier reference time scale. By calculating RC values for two time regimes (i.e., short and long time scales), one can obtain the transport mode that describes the particle transport properties over different length and temporal scales. RCshort was defined at τref=0.2 s and τprobe=1 s, whereas RClong was found at reference τref=1 s and τprobe=2s. An RC standard curve, which plots the 95% distribution range of Deff for purely Brownian particles over time scale, was generated based on Monte Carlo simulations and confirmed by tracking polystyrene nanoparticles in glycerol (data not shown). The transport modes of particles that display RC values below the […] range for either short or long time scales were classified as hindered, and the rest were classified as diffusive. Immobile particles are defined as those that display an average MSD smaller than the 10-nm resolution at a time scale of 1 s.

Row | Molecule | enhancement of diffusive fraction of 500 nm PEG-PS compared to no treatment control (500 nm PEG-PS particles, CF mucus pretreated with NAC) | increase of transport rates (ensemble geometric mean square displacement) compared to no treatment control (PBS) (500 nm PEG-PS particles, pretreatment of CF mucus with neutralized NAC) | effect on overall ensemble averaged transport rates of nanoparticles (listed as NAC) | effect on overall ensemble averaged transport rates of nanoparticles
1 | CC(=O)N[C@@H](CS)C(=O)O [N-acetyl-L-cysteine] | 3 fold | 10.7 fold | significantly improved; also recorded: increased significantly | –
2 | B1 | – | – | – | reduced the overall ensemble averaged transport rates; also recorded: did not correlate to improved particle transport
